Assay results as given in US11633379B2, “Methods of inhibiting PCSK9” (TRUSTEES OF DARTMOUTH COLLEGE, priority 2017, dated 2023).

System: PCSK9
Experiment: Plasma PCSK9 levels in mice (ELISA)
Format: in vivo
Experimental: 1) Single-dose experiments: mice were administered (oral gavage or intra-peritoneal injection) with 200 μl of 34 (30 mg/kg or 100 mg/kg) in 0.1% Tween 80+1% hydroxyethyl cellulose (HEC) in buffered (PBS pH7.4) solution. After 34 administration, 50-70 μl of blood was collected from the retro-orbital plexus every 4-6 hours (for a total of 24 hours). Blood was left to clot at room temperature for 20 min, followed by serum separation (spin at 1000 g for 10 min). Serum was analyzed as specified in the “Serum analyses” section.
2) Daily dosage experiments: mice were administered daily oral gavage with 200 μl of 34 (100 mg/kg) in 0.1% Tween80+1% hydroxyethyl cellulose (HEC) in buffered (PBS pH7.4) solution. 50-70 μl of blood was collected from the retro-orbital plexus on day 3 and day 5 after 34 administration, on day 5 mice were euthanized and liver were collected and analyzed as mentioned below under the “Liver analyses” section. Blood was left to clot at room temperature for 20 min, followed by serum separation (spin at 1000 g for 10 min). Serum was analyzed as described below:
PCSK9 levels—using commercially available ELISA kit (MBL-international, catalog # CY-8079) following the manufacturer instruction.

CC(=O)Oc1ccc(C2CC3(CCCCC3)c3c2[nH]c2ccccc32)cc1 (stereo not drawn) [Compound 34]
individual mice with a drop in PCSK9 levels (5-day oral 100 mg/kg/day, FIG. 12B): all mice receiving compound 34 presented with a drop in PCSK9 levels | drop in plasma PCSK9 (5-day oral 100 mg/kg/day, day 5, FIG. 12A): 36.2% | maximal drop in plasma PCSK9 (single 30 mg/kg intraperitoneal (IP) injection, 4 hours after administration, FIG. 9): 43.2% | maximal drop in plasma PCSK9 (single 30 mg/kg oral gavage, 4 hours after administration, FIG. 9): 22.5% | time after administration at which PCSK9 levels are back to baseline (single 30 mg/kg, IP or oral, FIG. 9): 20 h | maximal drop in plasma PCSK9 (single oral 30 mg/kg, 6 hours after administration, FIG. 10A): 28.5% | time after administration at which PCSK9 levels are back to baseline (single oral 30 mg/kg, FIG. 10A): 18 h | maximal drop in plasma PCSK9 (single oral 100 mg/kg, 6 hours after administration, FIG. 10B): 33.4% | time after administration at which PCSK9 levels are back to baseline (single oral 100 mg/kg, FIG. 10B): 24 h
